What was measured:
[1] = tested on: non-insulin dependent model for polycystic ovary syndrome (PCOS) induced by dehydroepiandrosterone (DHEA) in rats; assay: Concentration of testosterone in plasma, DHEA-induced PCOS model in rats; format: in vivo, Sprague-Dawley rats
Description: (§1) The study objective was to assess the effect of metformin in a non-insulin dependent model for polycystic ovary syndrome (PCOS) induced by dehydroepiandrosterone (DHEA) in rats.
(§2) The formulations to be tested were: • Gels with Metformin at a concentration of 2 mg/mL (FT-147), 20 mg/mL (FT-148) and 200 mg/mL (FT-149). • Gel without Metformin (Placebo; FT-150).
(§3) Female 2-3 weeks-old Sprague-Dawley rats were used.
(§4) Four experimental groups with 8 animals each were used in the study: • Group A: Control=Placebo+DHEA • Group B: Dose 1 Trial Substance (0.016 mg/animal)+DHEA • Group C: Dose 2 Trial Substance (0.16 mg/animal)+DHEA • Group D: Dose 3 Trial Substance (1.6 mg/animal)+DHEA
Each animal's dose was calculated based on the concentration of each formulation and the administration volume: • Dose 1: formulation of 2 mg/mL with administration of 8 μl/animal=0.016 mg/animal • Dose 2: formulation of 20 mg/mL with administration of 8 μl/animal=0.16 mg/animal • Dose 3: formulation of 200 mg/mL with administration of 8 μl/animal=1.6 mg/animal […]
Plasma was obtained from each blood sample by centrifugation at 5000 g for 5 minutes, which was frozen for later assessment (quantitative determinations) of testosterone levels by rat-specific commercial immunoassay kits (EIA).
Testosterone concentrations in the plasma samples from all animals were determined at the end of the study (Day 15).

[2] = tested on: non-insulin dependent model for polycystic ovary syndrome (PCOS) induced by dehydroepiandrosterone (DHEA) in rats; assay: Histological assessment of ovaries (no. of atretic follicles), DHEA-induced PCOS model in rats; format: in vivo, Sprague-Dawley rats
Description: as §1, §2, §3, §4
Each animal's dose was calculated based on the concentration of each formulation and the administration volume: • Dose 1: formulation of 2 mg/mL with administration of 8 μl/animal=0.016 mg/animal • Dose 2: formulation of 20 mg/mL with administration of 8 μl/animal=0.16 mg/animal • Dose 3: formulation of 200 mg/mL with administration of 8 μl/animal=1.6 mg/animal
The trial substance (doses of 0.016, 0.16 and 1.6 mg/animal) and the control substance were administered intravaginally as an aqueous gel at a volume of 8 μl/animal.
The DHEA solution was prepared in a sesame seed oil prior to administration and was injected subcutaneously in a skin fold in the posterior thoracic area (dorsal) at a volume of 0.2 mL. […]

## CN(C)C(=N)NC(=N)N [metformin, N,N-dimethylimidodicarbonimidic diamide]
[1]; high dose, intravaginal
  Testosterone plasma levels versus control group: very significant reduction
[1]; vaginal administration
  Plasma levels of testosterone: significantly decreases
[2]; intermediate dose, intravaginal
  Number of atretic follicles versus control group: significant reduction
[2]; vaginal administration
  Number of atretic follicles in the polycystic ovaries: a decrease

— patent US9339458B2, “Use of vaginal insulin sensitizing agents” (ITF RESEARCH PHARMA, S.L.U., priority 2009, dated 2016)
